Reference: patent US5459160A, “Iridoid derivatives and the use thereof as a drug” (Tsumura & Co., priority 1990, dated 1995)

Experiments:
[1] = test system: bile secretion; experiment: Cholagogic action, bile secretion (Experimental Example 5); format: in vivo, male Wistar rats; details: intraduodenal
Experimental: After male Wistar rats 7 weeks old were fasted for 24 hours, they were anesthetized by the interperitoneal administration of 1.25 g/kg (volume 2 m.iota./kg) of urethane. A polyethylene canula (SP-10, a product of Natsume Seisakusho) was inserted into a bile duct and after the bile was caused to flow out for 30 minutes, the bile was collected in the cource of 1 hour. Thereafter, each test drug was suspended or dissolved in a 1% aqueous Tween-80 solution, and was administered into the duodenum at a rate of 5 m.iota./kg. Furthermore, the bile was collected every hour in the course of five hours, and its weight was measured. Only a 1% Tween-80 solution was given as a control.
The results are tabulated in Tables 6, 7, 8, 9 and 10, wherein the bile secretion amount every hour was represented by a percentage with the bile secretion amount (mg) one hour before the dose of the test drug being 100.

[2] = test system: hyperlipemia; experiment: Anti-hyperlipemia test in rats on high fat food (Experimental Example 1); format: in vivo, Male Wistar rats; details: peroral once a day, two weeks, control 100, Table 1
From the text: Male Wistar rats 6.5 weeks old were allowed to freely intake a high fat food (containing 1% of cholesterol, 0.5% of sodium cholate, 12% of beef tallow and 20% of standard chow) in the cource of two weeks, to thus cause an outbreak of hyperlipemia. The dose of the drug was started simultaneously with the application of the high fat food, and was perorally given once a day through a stomach tube until the end of the experiment. The drugs were all suspended in a cane sugar fatty acid ester and were administered. The oily compounds were adjusted in advance to 100 mg/m.iota. by diethyl ether. A suitable amount was collected at the time of the dose and after diethyl ether was evaporated and removed, it was suspended in a cane sugar fatty acid ester (1% ryoto sugar ester) and then given. After the final dose of the drug, the rats were fasted for about 18 hours, and the blood was sampled to measure the blood serum lipid. The blood serum lipid was measured by using a TBA-380 biochemical analyzer (a product of Toshiba Medical Co.,) unless a particular hindrance occurred.

[3] = Acute toxicity test; details: mouse, in vivo, ip; male S.P.P. mice, abdominally administered; Table 11
Experimental: The acute toxicity test was carried out by abdominally administering each test drug to male S.P.P. mice and determining an LD50 value.

[4] = 0-1 hour after dose, control 81.1, Table 9
[5] = 1-2 hour after dose, control 66.6, Table 9
[6] = 2-3 hour after dose, control 55.8, Table 9
[7] = 3-4 hour after dose, control 49.0, Table 9
[8] = 4-5 hour after dose, control 42.8, Table 9

SMILES | Bile secretion amount, percentage of the hour before dose [1, 4] [%] | Bile secretion amount, percentage of the hour before dose [1, 5] [%] | Bile secretion amount, percentage of the hour before dose [1, 6] [%] | Bile secretion amount, percentage of the hour before dose [1, 7] [%] | Bile secretion amount, percentage of the hour before dose [1, 8] [%] | LD50 [3] [mg/kg] | further results
COC(=O)C1=COC(O)[C@H]2[C@@H]1CC1OC12C (stereo partly drawn) [Definite Example 35, methyl (4aS, 7aS)-6,7-epoxy-1,4a,5,6,7,7a-hexahydro-1-hydroxy-7-methylcyclopenta[c]pyran-4-carboxylate] |  |  |  |  |  |  | Bile secretion amount, percentage of the hour before dose ([1]; 0-1 hour after dose, control 87.7, Table 7): 110.4%; Bile secretion amount, percentage of the hour before dose ([1]; 1-2 hour after dose, control 75.3, Table 7): 85.2%; Bile secretion amount, percentage of the hour before dose ([1]; 2-3 hour after dose, control 65.0, Table 7): 71.4%; Bile secretion amount, percentage of the hour before dose ([1]; 3-4 hour after dose, control 58.7, Table 7): 61.1%; Bile secretion amount, percentage of the hour before dose ([1]; 4-5 hour after dose, control 51.8, Table 7): 53.5%
COC(=O)C1=COC(=O)[C@H]2[C@@H]1CC[C@@H]2C [Definite Example 5, methyl (4aS, 7S, 7aR)-1,4a, 5,6,7,7a-hexahydro-7-methyl-1-oxocyclopenta[c]pyran-4-carboxylate] | 105.0 | 78.0 | 62.0 | 52.6 | 45.1 |  | 
COC(=O)C1=CO[C@@H](O[C@@H]2O[C@H](CO)[C@@H](O)[C@H](O)[C@H]2O)[C@@H]2C(C)=CC[C@H]12 [Definite Example 8, methyl (1S, 4aS, 7aS)-1-(β-D-glucopyranosyloxy)-1,4a, 5,7a-tetrahydro-7-methylcyclopenta[c]pyran-4-carboxylate] | 85.0 | 71.7 | 60.1 | 50.6 | 44.4 |  | Blood serum cholesterol (%) ([2]; 10 mg/kg): 94.4%; Blood serum triglyceride (%) ([2]; 10 mg/kg): 82.5%; Blood serum cholesterol (%) ([2]; 30 mg/kg): 54.8%; Blood serum triglyceride (%) ([2]; 30 mg/kg): 68.7%
COC(=O)C1=CO[C@@H](O[C@@H]2O[C@H](COC(C)=O)[C@@H](OC(C)=O)[C@H](OC(C)=O)[C@H]2OC(C)=O)[C@@H]2C(C)=CC[C@H]12 [Definite Example 7, methyl (1S, 4aS, 7aS)-1-(2,3,4,6-tetra-O-acetyl-β-D-glucopyranosyloxy)-1,4a, 5,7a-tetrahydro-7-methylcyclopenta[c]pyran-4-carboxylate] |  |  |  |  |  | 382 | Blood serum cholesterol (%) ([2]; 10 mg/kg): 94.4%; Blood serum triglyceride (%) ([2]; 10 mg/kg): 96.9%; Blood serum cholesterol (%) ([2]; 30 mg/kg): 105%; Blood serum triglyceride (%) ([2]; 30 mg/kg): 64.6%
COC(=O)C1=COC(=O)[C@@H]2C(CO)=CC[C@H]12 [Definite Example 20, methyl (4aS, 7aS)-1,4a, 5,7a-tetrahydro-7-(hydroxymethyl)-1-oxocyclopenta[c]pyran-4-carboxylate] | 82.6 | 66.8 | 55.1 | 48.6 | 42.8 |  | 
OCC1=CC[C@@H]2C(CO)=CO[C@@H](OC3CCCCO3)[C@H]12 (stereo partly drawn) [Definite Example 17, (1S, 4aS, 7aS)-4,7-bis (hydroxymethyl)-1,4a, 5,7a-tetrahydro-1-(2-tetrahydropyranyloxy)cyclopenta[c]pyran] |  |  |  |  |  |  | Bile secretion amount, percentage of the hour before dose ([1]; 0-1 hour after dose, control 82.9, Table 10): 115.7%; Bile secretion amount, percentage of the hour before dose ([1]; 1-2 hour after dose, control 74.1, Table 10): 77.3%; Bile secretion amount, percentage of the hour before dose ([1]; 2-3 hour after dose, control 66.1, Table 10): 62.9%; Bile secretion amount, percentage of the hour before dose ([1]; 3-4 hour after dose, control 59.8, Table 10): 54.0%; Bile secretion amount, percentage of the hour before dose ([1]; 4-5 hour after dose, control 53.3, Table 10): 47.2%
COC(=O)C1=CO[C@@H](OC2CCCCO2)[C@@H]2C(CO)=CC[C@H]12 (single isomer, unassigned) [Definite Example 16] |  |  |  |  |  | 412 | 
COC(=O)C1=COC(=O)[C@@H]2C(CO[Si](C)(C)C(C)(C)C)=CC[C@H]12 [Definite Example 19] |  |  |  |  |  | 355 | 
COC(=O)C1=COC(O)[C@@H]2[C@@H](CO)CC[C@H]12 (stereo partly drawn) [Definite Example 6, methyl (4aS, 7S, 7aS)-1,4a, 5,6,7,7a-hexahydro-1-hydroxy-7-(hydroxymethyl)cyclopenta[c]pyran-4-carboxylate] |  |  |  |  |  | 406 | Blood serum cholesterol (%) ([2]; 10 mg/kg): 79.6%; Blood serum triglyceride (%) ([2]; 10 mg/kg): 86.7%; Blood serum cholesterol (%) ([2]; 30 mg/kg): 85.4%; Blood serum triglyceride (%) ([2]; 30 mg/kg): 80.4%; Bile secretion amount, percentage of the hour before dose ([1]; 0-1 hour after dose, control 84.1, Table 8): 111.4%; Bile secretion amount, percentage of the hour before dose ([1]; 1-2 hour after dose, control 72.5, Table 8): 78.0%; Bile secretion amount, percentage of the hour before dose ([1]; 2-3 hour after dose, control 63.8, Table 8): 66.7%; Bile secretion amount, percentage of the hour before dose ([1]; 3-4 hour after dose, control 56.7, Table 8): 55.2%; Bile secretion amount, percentage of the hour before dose ([1]; 4-5 hour after dose, control 51.2, Table 8): 50.3%
OCC1=CC[C@@H]2C(CO)=CO[C@@H](OC3CCCCO3)[C@H]12 (stereo partly drawn) [Definite Example 18, (1S, 4aS, 7aS)-4,7-bis(hydroxymethyl)-1,4a, 5,7a-tetrahydro-1-(2-tetrahydropyranyloxy)cyclopenta[c]pyran] | 91.3 | 74.6 | 60.3 | 51.1 | 44.1 | 559 | 
COC(=O)C1=COC(=O)[C@@H]2C(CO[Si](c3ccccc3)(c3ccccc3)C(C)(C)C)=CC[C@H]12 [Definite Example 28, methyl (4aS, 7aS)-7-[(tert-butyldiphenylsilyloxy)methyl]-1,4a, 5,7a-tetrahydro-1-oxocyclopenta[c]pyran-4-carboxylate] |  |  |  |  |  | 406 | 
COC(=O)C1=COC2OCC3CCC1C32 [Definite Example 12, methyl (iS, 4aS, 7R, 7aS)-1,7-(epoxymethano)-1,4a, 5,6,7,7a-hexahydrocyclopenta[c]pyran-4-carboxylate] |  |  |  |  |  | 527 | 
CC(C)(C)[Si](C)(C)OCC1=CC[C@@H]2C(CO)=CO[C@@H](O[Si](C)(C)C(C)(C)C)[C@H]12 [Definite Example 34, (1S, 4aS, 7aS)-1-(tert-butyldimethylsilyloxy)-7-[(tert-butyldimethylsilyloxy)methyl]-1,4a, 5,7a-tetrahydro-4-(hydroxymethyl)cyclopenta[c]pyran] |  |  |  |  |  | 511 | 
